Test results published in patent US20210395239A1 (Hoffmann-La Roche Inc., priority 2018, published 2021).

Each molecule was assayed against T1, human TLR7 (Homo sapiens, UniProt Q9NYK1) (assay: HEK293-Blue-hTLR-7 cells assay (SEAP reporter, R848 stimulation)). Conditions: HEK293-Blue-hTLR7 cells, R848, 20 hrs; read-out: HEK/hTLR7 IC50.
T1 construct: host or cells: HEK293 (HEK-Blue hTLR7)
T1 sequence (Q9NYK1 27-1049): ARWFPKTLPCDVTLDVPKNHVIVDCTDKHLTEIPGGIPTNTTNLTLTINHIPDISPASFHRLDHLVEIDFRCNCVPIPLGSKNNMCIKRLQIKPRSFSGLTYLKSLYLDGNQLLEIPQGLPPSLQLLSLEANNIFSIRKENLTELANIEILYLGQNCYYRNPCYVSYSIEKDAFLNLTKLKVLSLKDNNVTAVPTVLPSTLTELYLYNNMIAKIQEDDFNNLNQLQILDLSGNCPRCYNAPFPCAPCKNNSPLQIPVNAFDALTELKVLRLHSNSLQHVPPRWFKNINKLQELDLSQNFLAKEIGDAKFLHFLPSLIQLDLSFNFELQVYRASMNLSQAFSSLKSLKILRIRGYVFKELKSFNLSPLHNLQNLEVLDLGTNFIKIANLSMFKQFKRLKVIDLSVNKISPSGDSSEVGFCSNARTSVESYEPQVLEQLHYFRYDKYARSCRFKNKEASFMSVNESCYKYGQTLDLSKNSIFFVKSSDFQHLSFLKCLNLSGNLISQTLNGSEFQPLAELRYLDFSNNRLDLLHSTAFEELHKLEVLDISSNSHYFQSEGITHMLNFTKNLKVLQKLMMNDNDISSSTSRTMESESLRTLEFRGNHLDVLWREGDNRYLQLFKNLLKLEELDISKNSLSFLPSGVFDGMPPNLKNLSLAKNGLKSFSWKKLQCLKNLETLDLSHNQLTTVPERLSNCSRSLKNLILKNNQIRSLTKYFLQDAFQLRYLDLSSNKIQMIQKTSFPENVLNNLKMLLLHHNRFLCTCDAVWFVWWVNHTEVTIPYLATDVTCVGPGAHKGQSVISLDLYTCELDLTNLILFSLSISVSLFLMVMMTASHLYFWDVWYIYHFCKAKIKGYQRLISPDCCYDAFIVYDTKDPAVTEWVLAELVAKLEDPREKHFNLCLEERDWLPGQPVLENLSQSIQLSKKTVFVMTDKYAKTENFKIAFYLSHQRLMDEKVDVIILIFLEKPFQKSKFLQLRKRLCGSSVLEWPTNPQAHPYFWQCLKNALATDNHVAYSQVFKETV
Assay type: cell-based
Method in brief: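 HEK293-Blue-hTLR7 cells (NF-κB/AP-1-driven SEAP reporter) were stimulated with R848 alongside serially diluted compound at 1% final DMSO for 20 h at 37 °C. Supernatant SEAP was then developed with QUANTI-Blue for 2 h at 37 °C and absorbance read at 620–655 nm; antagonism is measured as reduced reporter signal.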
With `CO[C@@H]1CN(c2ccc(C3CN(C[C@H]4CN(c5ccc(C#N)n6ncc(F)c56)C[C@@H](C)O4)C3)cn2)C[C@H]1N` [Example 164, 4-[(2S,6R)-2-[[3-[6-[(3R,4R)-3-amino-4-methoxy-pyrrolidin-1-yl]-3-pyridyl]azetidin-1-yl]methyl]-6-methyl-morpholin-4-yl]-3-fluoro-pyrazolo[1,5-a]pyridine-7-carbonitrile] the IC50 was 10 nM. `C[C@@H]1CN(c2ccc(C#N)n3ncc(F)c23)C[C@H](CN2CC(c3ccc(N4C[C@@H]5C[C@H]4CN5)nc3)C2)O1` [Example 165, 4-[(2S,6R)-2-[[3-[6-[(1S,4S)-2,5-diazabicyclo[2.2.1]heptan-2-yl]-3-pyridyl]azetidin-1-yl]methyl]-6-methyl-morpholin-4-yl]-3-fluoro-pyrazolo[1,5-a]pyridine-7-carbonitrile] was tested, and the IC50 was 7 nM. `CO[C@@H]1CN(c2ccc(N3CCN(C[C@H]4CN(c5ccc(C#N)n6ncc(F)c56)C[C@@H](C)O4)CC3)cn2)C[C@H]1N` [Example 166, 4-[(2S,6R)-2-[[4-[6-[(3R,4R)-3-amino-4-methoxy-pyrrolidin-1-yl]-3-pyridyl]piperazin-1-yl]methyl]-6-methyl-morpholin-4-yl]-3-fluoro-pyrazolo[1,5-a]pyridine-7-carbonitrile] showed an IC50 of 21 nM.
